Measured values as given in ChEMBL document CHEMBL4825686, “HTS-based discovery and optimization of novel positive allosteric modulators of the α7 nicotinic acetylcholine receptor” (Eur J Med Chem, 2021).
In brackets after ≈: the same amount, converted by molar mass. Activity calls are given as the source filed them. The calls are words filed in the database; no cut-off is given here.

How the values were obtained:
[1] = Ratio of drug level in NMRI mouse brain to plasma at 10 mg/kg, ip measured after 1 hr by HPLC-MS/MS analysis; type: ADME, organism-based; details: read-out: BPR
[2] = biological target: Neuronal acetylcholine receptor; alpha3/beta4 (Homo sapiens) (UniProt P30926+P32297); experiment: Positive allosteric modulator activity at alpha3beta4 nAChR (unknown origin) upto 10 uM by automated Q-patch clamp assay; details: dose microM <=10
[3] = biological target: Sigma non-opioid intracellular receptor 1 (Homo sapiens) (UniProt Q99720); experiment: Binding affinity to human recombinant sigma-1 receptor assessed as displacement of radioligand at 10 uM by displacement binding assay
Sequence of Sigma non-opioid intracellular receptor 1 (Homo sapiens) (Q99720 whole entry): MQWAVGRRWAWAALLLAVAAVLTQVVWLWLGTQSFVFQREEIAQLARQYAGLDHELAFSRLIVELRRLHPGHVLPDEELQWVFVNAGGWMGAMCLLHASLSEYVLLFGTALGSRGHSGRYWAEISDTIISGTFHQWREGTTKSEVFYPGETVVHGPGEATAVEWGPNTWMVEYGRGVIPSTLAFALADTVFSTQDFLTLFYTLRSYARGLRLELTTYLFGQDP

[4] = biological target: Glutamate NMDA receptor (Rattus norvegicus) (UniProt P35439+Q00959+Q00960+Q00961+Q62645+Q8VHN2+Q9R1M7); experiment: Displacement of [3H]TCP from NMDA receptor in Wistar rat cerebral cortex at 10 uM by displacement binding assay; type: tissue-based
[5] = Mutagenicity in Salmonella typhimurium TA98 in absence of rat liver S9 fraction by AMES test; type: toxicity; details: salmonella enterica subsp. enterica serovar typhimurium
[6] = Ratio of drug level in NMRI mouse brain to plasma at 3 mg/kg, ip measured after 1 hr by HPLC-MS/MS analysis; type: ADME, organism-based; details: read-out: BPR
[7] = Plasma concentration in Wistar rat at 3 mg/kg, ip measured after 35 mins by HPLC-MS/MS analysis; type: ADME, organism-based
[8] = Ratio of drug level in NMRI mouse brain to plasma at 0.3 mg/kg, ip measured after 1 hr by HPLC-MS/MS analysis; type: ADME, organism-based; details: read-out: BPR
[9] = Drug uptake in NMRI mouse brain at 10 mg/kg, ip measured after 1 hr by HPLC-MS/MS analysis; type: ADME, organism-based; details: read-out: Ct
[10] = Metabolic stability in NMRI mouse liver microsomes assessed as intrinsic clearance at 1 uM measured per mg protein upto 40 mins; type: ADME, Microsome; details: read-out: CLH
[11] = Kinetic solubility of compound; type: physicochemical; details: read-out: Kinetic_solubility
[12] = Mutagenicity in Salmonella typhimurium TA1535 in absence of rat liver S9 fraction by AMES test; type: toxicity; details: salmonella enterica subsp. enterica serovar typhimurium
[13] = Metabolic stability in human liver microsomes assessed as intrinsic clearance at 1 uM measured per mg protein upto 40 mins; type: ADME, Microsome; details: read-out: CLH
[14] = Plasma concentration in NMRI mouse at 3 mg/kg, ip measured after 1 hr by HPLC-MS/MS analysis; type: ADME, organism-based
[15] = biological target: GABA-A receptor; alpha-5/beta-3/gamma-2 (Homo sapiens) (UniProt P18507+P28472+P31644); experiment: Activation of human alpha5beta3gamma2 GABAA receptor expressed in HEK293 cells assessed as enhancement of GABA induced channel current response at 1 to 10 uM measured after 7 to 10 mins at -80 mV holding potential by whole-cell patch clamp assay; type: cell-based; details: dose 1-10 µM, time 7-10 min
[16] = biological target: GABA-A receptor; anion channel (Rattus norvegicus) (UniProt O09028+P15431+P18506+P18508+P19969+P20236+P23574+P23576+P28471+P28473+P30191+P62813+P63079+P63138+Q91ZM7+Q9ES14); experiment: Displacement of [3H]flunitrazepam from GABAA receptor in Wistar rat brain without cerebellum at 10 uM by displacement binding assay; type: tissue-based
[17] = Drug uptake in Wistar rat brain at 10 mg/kg, ip measured after 35 mins by HPLC-MS/MS analysis; type: ADME, organism-based; details: read-out: Ct
[18] = biological target: Neuronal acetylcholine receptor subunit alpha-7 (Homo sapiens, UniProt P36544); experiment: Positive allosteric modulation of human alpha7 nAChR expressed in HEK293 cells assessed as inhibition of choline-evoked current desensitization measured after 6 to 10 mins at -80 mV holding potential by automated whole cell patch clamp analysis; type: cell-based; details: filed as positive allosteric modulator, time 6-10 min
Sequence of Neuronal acetylcholine receptor subunit alpha-7 (P36544 whole entry): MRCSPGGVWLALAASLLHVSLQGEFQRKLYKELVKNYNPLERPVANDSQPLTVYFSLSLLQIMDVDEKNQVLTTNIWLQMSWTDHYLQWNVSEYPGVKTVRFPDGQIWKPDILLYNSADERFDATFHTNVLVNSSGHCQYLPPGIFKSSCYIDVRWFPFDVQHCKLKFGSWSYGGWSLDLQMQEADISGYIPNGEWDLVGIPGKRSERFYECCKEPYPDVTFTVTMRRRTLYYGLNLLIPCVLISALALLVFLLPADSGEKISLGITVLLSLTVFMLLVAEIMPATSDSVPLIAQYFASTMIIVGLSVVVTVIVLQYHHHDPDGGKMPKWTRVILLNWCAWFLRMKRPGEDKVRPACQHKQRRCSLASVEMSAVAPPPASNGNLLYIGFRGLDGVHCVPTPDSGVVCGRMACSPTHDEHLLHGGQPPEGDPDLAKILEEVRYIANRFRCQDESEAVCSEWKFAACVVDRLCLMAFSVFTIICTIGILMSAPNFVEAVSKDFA

[19] = biological target: T1, 5-hydroxytryptamine receptor 3A (Homo sapiens) (UniProt P46098); experiment: Displacement of [3H]GR65630 from human 5-HT3 receptor expressed in HEK293 cells at 10 uM by displacement binding assay; type: cell-based
T1 sequence (whole entry): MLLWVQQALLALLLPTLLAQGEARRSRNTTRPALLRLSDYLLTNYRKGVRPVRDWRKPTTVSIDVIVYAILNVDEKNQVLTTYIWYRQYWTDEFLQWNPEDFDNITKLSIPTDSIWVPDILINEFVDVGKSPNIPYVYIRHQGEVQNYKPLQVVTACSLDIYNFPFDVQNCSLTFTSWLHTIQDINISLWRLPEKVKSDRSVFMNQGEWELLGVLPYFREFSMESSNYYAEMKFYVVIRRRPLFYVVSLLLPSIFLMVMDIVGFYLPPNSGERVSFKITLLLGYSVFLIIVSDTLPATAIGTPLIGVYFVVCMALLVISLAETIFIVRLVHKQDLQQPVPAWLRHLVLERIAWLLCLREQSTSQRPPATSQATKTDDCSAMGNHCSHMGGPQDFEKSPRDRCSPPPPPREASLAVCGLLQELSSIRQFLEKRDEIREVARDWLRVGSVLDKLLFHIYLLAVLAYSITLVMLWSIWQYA

[20] = Mutagenicity in Salmonella typhimurium TA1535 in presence of rat liver S9 fraction by AMES test; type: toxicity, subcellular; details: salmonella enterica subsp. enterica serovar typhimurium
[21] = biological target: GABA-A receptor; alpha-1/beta-3/gamma-2 (Homo sapiens) (UniProt P14867+P18507+P28472); experiment: Inhibition of human alpha1beta3gamma2 GABAA receptor expressed in HEK293 cells assessed as inhibition of GABA induced channel current response at 1 to 10 uM measured after 7 to 10 mins at -80 mV holding potential by whole-cell patch clamp assay; type: cell-based; details: dose 1-10 µM, time 7-10 min
[22] = test system: Rattus norvegicus; experiment: Cognitive enhancing effect in Hannover Wistar rat assessed as increase in novel object recognition index at 1 to 10 mg/kg, po administered 30 mins prior to recognition trail by novel object recognition test; type: functional, organism-based; details: dose 1-10 mg/kg
[23] = Plasma concentration in NMRI mouse at 0.1 mg/kg, ip measured after 1 hr by HPLC-MS/MS analysis; type: ADME, organism-based
[24] = Drug uptake in NMRI mouse brain at 0.1 mg/kg, ip measured after 1 hr by HPLC-MS/MS analysis; type: ADME, organism-based; details: read-out: Ct
[25] = Mutagenicity in Escherichia coli WP2 uvrA in absence of rat liver S9 fraction by AMES test; type: toxicity
[26] = biological target: Voltage-gated inwardly rectifying potassium channel KCNH2 (Homo sapiens, UniProt Q12809); experiment: Inhibition of human ERG channel expressed in CHO cells measured after 7 to 10 mins at -80 mV holding potential by whole cell patch clamp assay; type: cell-based
Sequence of Voltage-gated inwardly rectifying potassium channel KCNH2 (Q12809 whole entry): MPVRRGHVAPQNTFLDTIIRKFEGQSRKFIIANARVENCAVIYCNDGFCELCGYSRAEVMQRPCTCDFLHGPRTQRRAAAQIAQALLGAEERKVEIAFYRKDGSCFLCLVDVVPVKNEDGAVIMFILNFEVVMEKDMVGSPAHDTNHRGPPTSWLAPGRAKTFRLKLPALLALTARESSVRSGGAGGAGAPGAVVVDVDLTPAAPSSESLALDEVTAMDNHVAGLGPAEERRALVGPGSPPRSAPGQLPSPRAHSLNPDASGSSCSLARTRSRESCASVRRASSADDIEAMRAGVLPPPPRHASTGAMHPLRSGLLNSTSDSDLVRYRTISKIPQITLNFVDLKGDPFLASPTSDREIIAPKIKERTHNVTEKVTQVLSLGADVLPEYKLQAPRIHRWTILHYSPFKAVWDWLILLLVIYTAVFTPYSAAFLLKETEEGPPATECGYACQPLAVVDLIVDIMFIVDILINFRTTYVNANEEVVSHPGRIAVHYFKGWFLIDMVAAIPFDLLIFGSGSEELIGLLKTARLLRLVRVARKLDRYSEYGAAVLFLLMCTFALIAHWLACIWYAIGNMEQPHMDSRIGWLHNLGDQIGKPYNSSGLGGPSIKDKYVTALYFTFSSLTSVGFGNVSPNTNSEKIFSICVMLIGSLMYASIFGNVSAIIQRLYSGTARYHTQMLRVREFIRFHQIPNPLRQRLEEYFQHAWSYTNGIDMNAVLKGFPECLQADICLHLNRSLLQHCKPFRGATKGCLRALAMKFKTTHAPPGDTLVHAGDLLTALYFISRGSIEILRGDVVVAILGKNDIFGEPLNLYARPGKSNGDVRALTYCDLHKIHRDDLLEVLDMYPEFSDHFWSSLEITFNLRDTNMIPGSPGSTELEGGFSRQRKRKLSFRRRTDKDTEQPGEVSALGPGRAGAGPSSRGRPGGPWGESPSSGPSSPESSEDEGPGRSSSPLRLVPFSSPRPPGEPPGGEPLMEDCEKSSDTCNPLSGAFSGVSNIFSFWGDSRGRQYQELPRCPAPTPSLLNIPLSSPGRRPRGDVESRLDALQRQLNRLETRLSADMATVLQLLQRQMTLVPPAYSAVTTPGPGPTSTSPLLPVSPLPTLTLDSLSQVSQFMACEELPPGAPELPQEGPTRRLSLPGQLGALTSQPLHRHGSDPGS

[27] = Ratio of drug level in Wistar rat brain to plasma at 3 mg/kg, ip measured after 35 mins by HPLC-MS/MS analysis; type: ADME, organism-based; details: read-out: BPR
[28] = Plasma concentration in NMRI mouse at 10 mg/kg, ip measured after 1 hr by HPLC-MS/MS analysis; type: ADME, organism-based
[29] = Mutagenicity in Salmonella typhimurium TA100 in absence of rat liver S9 fraction by AMES test; type: toxicity; details: salmonella enterica subsp. enterica serovar typhimurium

Cc1ccc(CN2CCN(C(=O)C(=O)Nc3ccc4c(ccn4C)c3)CC2)cc1
Kp at 1 h [1]: 1.67
Activity [2]: inactive
inhibition [3]: 55%
inhibition [4]: < 15%
Activity [5]: Non-Toxic
Kp at 1 h [6]: 1.68
concentration at 35 min [7]: 54 nM
Kp at 1 h [8]: 1.22
concentration at 1 h [9]: 233 nM
microsomal CLint at 1 µM [10]: 55 µL/min/mg
solubility kinetic [11]: 41.6 µM (≈ 16.2 µg/mL)
Activity [12]: Non-Toxic
microsomal CLint at 1 µM [13]: 15 µL/min/mg
concentration at 1 h [14]: 37 nM
Activity [15]: < 7%
inhibition [16]: < 15%
concentration at 35 min [17]: 657 nM
Activity [18]: Active
inhibition [19]: < 15%
Activity [20]: Non-Toxic
inhibition [21]: < 7%
Activity [22]: inactive
concentration at 1 h [23]: 2.1 nM
concentration at 1 h [24]: 3.1 nM
Activity [25]: Non-Toxic
IC50 [26]: 7.5 µM
Kp at 35 min [27]: 3.8
concentration at 1 h [28]: 142 nM
Activity [29]: Non-Toxic
